Patent publication US20140011755A1, “Cardiac Glycosides for Treating Autoimmune Disease” (Department of Veterans Affairs, priority 2010, published 2014)

How the values were obtained:
[1] = system: collagen-induced arthritis (CIA); type: in vivo, DBA1/J mice
[2] = system: collagen-induced arthritis (CIA) joints; type: in vivo, DBA1/J mice; conditions: cross-sectioned ankle joints, CIA prevention groups
Description: FIG. 7. Cardiac glycosides reduce joint pathology in the CIA mouse model for rheumatoid arthritis. Blinded scoring was performed on histologic sections of joints harvested from mice at the end of a CIA prevention study (A-C). Joints derived from three representative mice belonging to each prevention group (A-C) were decalcified, fixed and stained with tolidine blue, followed by scoring by an examiner blinded to treatment status for the severity of synovitis (inflammation), pannus (growth of the synovial lining), and erosions of bone. (D-G) Joints derived from three representative mice belonging to each prevention group were decalcified, fixed, and stained with hematoxylin and eosin. Cross-sectioned ankle joints from vehicle (D), digitoxin (E), ouabain (F) and proscillaridin (G) treated mice are presented. Error bars represent SEM, and asterisks indicate P-values less than 0.05 by Mann-Whitney test.
In treatment studies, mice were randomly enrolled in treatment groups and treatment commenced when the average clinical score was at or above 2. […] Daily dosing commenced upon enrollment at the abovementioned concentrations. […] Double-blinded histopathology scoring was conducted of cross-sectioned joints taken from cardiac glycoside and vehicle recipients. […] The results obtained from these animal studies indicate that cardiac glycosides are effective at reducing the clinical manifestations of disease and reducing joint pathology in mice with collagen arthritis.
The effects of the different cardiac glycoside treatments on CIA pathology was analyzed by histological scoring. Inflammatory cell infiltrate, synovial hyperplasia, pannus formation and articular cartilage and bone deterioration were evaluated in sectioned paws of treated mice at specific time-points throughout the disease course. […] The ELISA was developed and read using BD ELISA development kit. […]

[3] = system: anti-type II collagen antibodies; type: in vivo; conditions: sera of 6 mice per prevention group, ANOVA
Description: FIG. 10. Cardiac glycosides reduce immunoglobulin levels in CIA mice. ELISAs for anti-type II collagen antibodies were performed on sera derived from 6 representative mice of each prevention group (A, B). Isotype specific antibodies for IgG1 and IgG2a (A) and IgM (B) were utilized. […] Statistical analysis was performed using ANOVA and asterisks indicate points at which the P-values were less than 0.001.
The effects of the different cardiac glycoside treatments on CIA pathology was analyzed by histological scoring. Inflammatory cell infiltrate, synovial hyperplasia, pannus formation and articular cartilage and bone deterioration were evaluated in sectioned paws of treated mice at specific time-points throughout the disease course. Histopathology scores of inflammation, pannus formation and bone and cartilage erosions were conducted by a blinded investigator on toludine blue-stained cross sections of fixed leg joints from representative mice in vehicle and glycoside groups. Pathology scoring for each of the three categories are on a scale of 0-4 with grade 0=normal, 1=mild inflammation, hyperplasia of the synovial lining, cartilage destruction without bone erosion, grades 2 to 4=increasing degrees of inflammatory cell infiltrate, synovial hyperplasia, pannus formation and cartilage and bone destruction. Error bars represent SEM and statistics were performed using the Mann-Whitney test. At the endpoint, mice are bled and serum is collected from representative mice and stored at −80 C until use. To determine anti-collagen II antibody levels and to characterize isotype prevalence, bovine collagen II (Chondrex) was coated O/N at 4 C on an ELISA plate, washed and incubated with 100 uL of 1:10 dilution of each serum sample (in triplicate) for 2 h at RT. Wells were washed and incubated with anti-mouse IgM u-chain specific (Jackson), anti-mouse IgG1, or anti-mouse IgG2a (Southern Biotech) for 1 h at RT. The ELISA was developed and read using BD ELISA development kit. Statistical analysis was performed using the two-tailed ANOVA and asterisks represent P-values less than 0.01.

[4] = system: TNF, IL-6 and IL-1beta; assay: Serum cytokine ELISA in CIA treatment groups; type: in vivo; conditions: serum from 3 mice per treatment group, ELISA in triplicate
Description: FIG. 9. Serum cytokine levels are similar between vehicle and cardiac glycoside treatment groups. […] The unpaired student t-test was used to assess significance.

[5] = system: TNF-mediated NFκB activity in HeLa cells; assay: NFκB luciferase reporter assay in TNF-stimulated HeLa cells; type: cell-based; conditions: pre-treatment 6 hours with 0-500 nM, 50 ng/mL TNF
Description: FIG. 8. […] Values represent mean light units produced. Error bars represent SEM, and statistical significance was determined by unpaired T-test. Single and double asterisks represent P-values of 0.01 or 0.001, respectively. […] Samples were harvested at designated time points and were fractionated into nuclear and cytoplasmic lysates (Pierce). Lysates were quantified using BCA (Pierce), and were equally loaded according to total protein. Membranes were probed for levels of nuclear phospho-p65 (ReIA), phospho-ReIB, and histone (histone served as loading control and fractionation method control) and cytoplasmic degradation of IκBα (beta-tubulin served as loading control and fractionation method control).
HeLa cells were co-transfected with the reporter pNFκB-luc and control vector pTAL (Renilla) for 18 h prior to incubation with 0-500 nM cardiac glycoside for 6 h. Cells are stimulated with 50 ng/mL TNF. […] FIG. 8 B).

[6] = target: T1, CD40 (Mus musculus, UniProt P27512); type: cell-based, mice; conditions: pre-treatment with 3.3 or 33 nM
T1 construct: Peritoneal and bone marrow-derived macrophages were isolated from CIA mice; endogenous in cells; host or cells: peritoneal and bone marrow-derived macrophages from CIA mice
T1 sequence (P27512 20-289): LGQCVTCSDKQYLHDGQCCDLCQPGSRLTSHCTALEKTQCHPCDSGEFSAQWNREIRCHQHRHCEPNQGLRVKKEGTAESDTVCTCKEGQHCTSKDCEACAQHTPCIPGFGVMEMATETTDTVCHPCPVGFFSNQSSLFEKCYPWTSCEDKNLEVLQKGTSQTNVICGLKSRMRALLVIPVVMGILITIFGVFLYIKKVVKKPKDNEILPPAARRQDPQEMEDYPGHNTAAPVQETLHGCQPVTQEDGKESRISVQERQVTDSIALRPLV
Description: (§1) Activity was monitored by ^3H-thymidine incorporation as a read-out for proliferation. […] Cell type(s) in the splenocyte population responsive to therapeutic concentrations of cardiac glycoside were determined by identifying the population of cells that responded to a dose-dependent decrease in activity in the presence of stimulant, defined as ligand(s) binding to cognate receptor(s). Activity was analyzed by: ^3H-thymidine or BrdU incorporation to monitor proliferation or by ELISA to monitor cytokine production. Splenic T lymphocytes were isolated by negative selection (MACS, Miltinyi Biotec) and are stimulated with PMA, ConA or through the TCR with anti-CD3/anti-CD28 Dynabeads (Invitrogen) and collagen II (all non-TNFR receptors/pathways). […] Peritoneal and bone marrow-derived macrophages were isolated from CIA mice in the presence of M-CSF growth factor and were stimulated with TNF and CD40 ligand (CD40L). […] Splenic B lymphocytes were isolated by negative selection (MACS, Miltinyi Biotec) and were stimulated with BAFF (BLyS), CD40L or through the BCR with anti-IgM u-chain specific antibodies.

[7] = system: TNFR; type: cell-based, mice; conditions: pre-treatment with 3.3 or 33 nM
Description: as §1

[8] = Human, 3 × 0.5 mg/kg per diem, oral; Andersson, et al. (1975); cited from earlier work
[9] = injectable versus other formulations; cited from earlier work
[10] = system: erectile dysfunction; conditions: 20 mg sublingual; cited from earlier work
[11] = daily i.p. from Mean Visual Score of 2, digitoxin 0.3 mg/kg, proscillaridin […], Mann-Whitney

Structure (SMILES) | Mean Paw Thickness, treatment of established arthritis [1, 11] | Mean Visual Score, treatment of established arthritis [1, 11] | development of CIA (Mean Visual Arthritis Score, Mean Paw Thickness), prevention study ([1]; daily i.p. from the day prior to induction, digitoxin 0.3 mg/kg, ouabain 0.03 mg/kg, proscillaridin […]) | average clinical arthritis scores compared to vehicle, prevention study ([1]; first dose one day prior to boost, 0.3 mg/kg digitoxin, 0.03 mg/kg ouabain, […] proscillaridin, 0.35 mg/kg digoxin, […] bufalin, 15 mice per group) | prevention and treatment of collagen-induced arthritis (CIA) ([1]; murine model for rheumatoid arthritis, summary statement) | immune cell infiltrate into the joints (hematoxylin and eosin) [2] | anti-type II collagen IgG1 level relative to vehicle [3] | anti-type II collagen IgM level relative to vehicle [3] | Serum cytokine levels (TNF, IL-6 and IL-1beta) versus vehicle [4] | TNF-mediated NFκB activation (luciferase light units) [5] | CD40L-mediated activation of macrophage through CD40 [6] | TNF-mediated activation of macrophage through TNFR [7] | Serum conc. [8] | bioavailability by formulation [9] | safety and efficacy of sublingual administration [10]
C[C@@H]1O[C@@H](O[C@@H]2C=C3CC[C@@H]4[C@H](CC[C@]5(C)[C@@H](c6ccc(=O)oc6)CC[C@]45O)[C@@]3(C)CC2)[C@H](O)[C@H](O)[C@H]1O [Proscillaridin, proscillaridin A] | statistically significant reductions | statistically significant reductions | prevented the development of CIA | significantly reduced | potently prevent and treat | decreased amounts of immune cell infiltrate | reduced levels | reduced levels | similar | reduced TNF-mediated NFκB activation in a dose-dependent fashion | inhibits | inhibits | 0.75 ng/mL | higher bioavailability with injectable formulations | –
CCCc1nn(C)c2c(=O)[nH]c(-c3cc(S(=O)(=O)N4CCN(C)CC4)ccc3OCC)nc12 [sildenafil] | – | – | – | – | – | – | – | – | – | – | – | – | – | – | safe and effective
